Data as given in US10132796B2, “Method for detecting and quantifying a target molecule in a tissue” (IMABIOTECH, priority 2011, dated 2018).

Test: Quantification of propranolol in a treated mouse kidney by MALDI mass spectrometry imaging
Type: in vivo
Conditions: mouse treated with 7.5 mg/kg propranolol, sacrificed 20 minutes post-administration, kidney slices 20 μm, calibration curve from reconstituted kidney
Description: A mouse kidney treated with 7.5 mg/kg of propranolol, and sacrificed 20 minutes post-administration, is taken.
Three 20 μm thick tissue slices are produced from the kidney and are each deposited on a support (slide ITO).
MALDI DHB matrix (40 mg/ml methanol/TFA 0.1% 1/1) is sprayed using a robotized system (SunCollect) onto the slices.
Each slice is analysed by mass spectrometry imaging, using an Autoflex speed LRF (Bruker, Daltonics). The average intensity of the peaks of the mass spectrum of the propranolol (m/z 260.2) is computed, by once again using a number of ROIs on each slice, all dimensions being the same.
The average intensity value obtained is 19633.3.
The propranolol concentration in the kidney is quantified using the calibration curve equation (FIG. 2), by including the average intensity value obtained on said straight line. The propranolol here is in a concentration of 5.9 μg/g of tissue.

CC(C)NCC(O)COc1cccc2ccccc12 (stereo not shown) [propranolol]
propranolol concentration in the kidney: 5.9 μg/g of tissue
